Test [1] relates to spontaneously hyper-tensive rats (SHR). In words: pressure tests in awake spontaneously hypertensive rats. The class given is in vivo. Particulars: 2 mg/Kg i.v. The text has this: (§1) In the following examples will first of all be given the data necessary for synthesis of the compounds according to the present invention. There will then be given data regarding their pharmacological activity, using methods widely known to be valid. In particular, for the pressure tests, spontaneously hyper-tensive rats were used (SHR from the company Charles River), operated in such a way as to enable pressure to be read even when the animals were awake and free to move. In order to evaluate the analgesic activity, the Hot Plate and Writhing Tests were used. For the anti-inflammatory effect the test of carraginine edema was used. Finally, for immuno-modulating activity the evaluation of the stimulation of growth of human lymphocytes in culture was resorted to, after the addition of specific antigens. The results obtained for each synthesized compound are given at the end of each example.

Test [2] is described as follows: Hot Plate test (analgesic activity). Type of test: in vivo. Particulars: dose not stated.
Excerpt: as §1

The nature of test [3]: Writhing test (analgesic activity). The class given is in vivo. Particulars: dose not stated.
Excerpt: as §1

The nature of test [4]: analgesic activity, test not specified (Hot Plate and Writhing Tests). Type of test: in vivo. Particulars: test and dose not stated.
Excerpt: as §1

Test [5] concerns carraginine edema. In words: carraginine edema test (anti-inflammatory effect). The class given is in vivo. Particulars: dose not stated.
Excerpt: as §1

In test [6] the test system is human lymphocytes in culture. In words: stimulation of growth of human lymphocytes in culture after addition of specific antigens. Particulars: antigen not stated. The class given is cell-based.
Excerpt: as §1

Each structure is given as a SMILES string.

On to `COC[C@H](Cc1ccccc1)NC(=O)[C@H](C)NC(=O)[C@@H]1CCCN1C(=O)OCc1ccccc1` [compound 6, Z-(L)-Pro-(L)-Ala-(L)-Pme], for which the anti-hypertensive effect result in test [1] is recorded as “good anti-hypertensive activity”. In test [1] (after one hour), the reduction of pressure result is recorded as “approximately 25%”. Also, the “extension of time in the Hot Plate test” value in test [2] came out at 25%. In addition, in test [3], the “reduction of contorsions during the Writhing test” value was found to be 70%. The analgesic activity entry in test [4] is recorded as “good analgesic activity”. In test [5], the anti-inflammatory effect result is “rather weak”. Besides, the “immune response (immuno-stimulating activity)” value in test [6] was “more consistent”.
